From patent US20130310379A1, “MODULATORS OF METHYL MODIFYING ENZYMES, COMPOSITIONS AND USES THEREOF” (CONSTELLATION PHARMACEUTICALS, priority 2010, published 2013) come the findings set out here.

One experiment addresses EZH2 (Homo sapiens, UniProt Q15910). Nature of the experiment: EZH2 assay: rPRC2 with biotinylated oligonucleosome substrates and 3H SAM, FlashPlate scintillation counting, IC50. Type of experiment: biochemical. As to conditions: rPRC2, biotinylated oligonucleosome substrates, 3H SAM; read-out: EZH2 IC50. In outline:
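IC50 from 4-parameter fit, baselines fixed at 0 and 100%. Compounds (top 80 uM, 2-fold series to 0.16 uM) pre-incubated 20 min with 2 nM EZH2-PRC2; 60-min methylation in pH 8.5 Tris with 0.2 uM 3H SAM, 0.2 uM oligonucleosomes, 3.6 uM H3K27me3 peptide.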

The target in a further experiment is Y641N EZH2 (Homo sapiens, UniProt Q15910, Y641N). Description: Y641N EZH2 assay: performed as the EZH2 assay, using reconstituted H3K27Me2 oligonucleosomes as substrate. Type of experiment: biochemical. The procedure: Assays were carried out by mixing rPRC2 together with biotinylated oligonucleosome substrates in the presence of the radio-labeled enzyme co-factor, S-adenosyl-L-methionine (^3H SAM) (Perkin Elmer) and monitoring the enzymatically mediated transfer of tritiated methyl groups from ^3H SAM to histone lysine residues. The amount of resulting tritated methylhistone product was measured by first capturing the biotinylated oligonuclesomes in streptavidin (SAV) coated FlashPlates (Perkin Elmer), followed by a wash step to remove un-reacted ^3H SAM, and then counting on a TopCount NXT 384 well plate scintillation counter (Perkin Elmer). The final assay conditions for EZH2 were as follows: 50 mM Tris Buffer pH 8.5, 1 mM DTT, 69 uM Brij-35 detergent, 5.0 mM MgCl2, 0.1 mg/mL BSA, 0.2 uM ^3H SAM, 0.2 uM biotinylated oligonucleosomes, 3.6 uM H3K27me3 peptide and 2 nM EZH2.
Compound IC50 measurements were obtained as follows: Compounds were first dissolved in 100% DMSO as 10 mM stock solutions. […] A 12.5 uL volume of the HMT enzyme, H3K27me3 peptide and oligonucleosome substrate in assay buffer was added to each well of the assay plate using a Multidrop Combi (ThermoFisher). Compounds were pre-incubated with the enzyme for 20 min, followed by initiation of the methyltransferase reaction by addition of 12.5 uL of 3H SAM in assay buffer (final volume=25 uL). The final concentrations of compounds ranged from a top default concentration of 80 uM down to 0.16 uM in ten 2-fold dilution steps. Reactions were carried out for 60 minutes and quenched with 20 uL per well of 1.96 mM SAH, 50 mM Tris PH 8.5, 200 mM EDTA. Stopped reactions were transferred to SAV coated Flashplates (Perkin Elmer), incubated for 120 min, washed with a plate washer, and then read on the TopCount NXT (1.0 min/well) to measure the amount of methylhistone product formed during the reaction. The amount of methylhistone product was compared with the amount of product formed in the 0% and 100% inhibition control wells allowing the calculation of % Inhibition in the presence of the individual compounds at various concentrations. IC50's were computed using a 4 parameter fit non-linear curve fitting software package (XLFIT, part of the database package, ActivityBase (IDBS)) where the four parameters were IC50, Hill slope, pre-transitional baseline (0% INH), and post-transitional baseline (100% INH); with the latter two parameters being fixed to zero and 100%, respectively, by default.

Usually IC50 stands for the concentration that inhibits the measured activity by half.

Y641N EZH2, sequence (Q15910 whole entry Y641N): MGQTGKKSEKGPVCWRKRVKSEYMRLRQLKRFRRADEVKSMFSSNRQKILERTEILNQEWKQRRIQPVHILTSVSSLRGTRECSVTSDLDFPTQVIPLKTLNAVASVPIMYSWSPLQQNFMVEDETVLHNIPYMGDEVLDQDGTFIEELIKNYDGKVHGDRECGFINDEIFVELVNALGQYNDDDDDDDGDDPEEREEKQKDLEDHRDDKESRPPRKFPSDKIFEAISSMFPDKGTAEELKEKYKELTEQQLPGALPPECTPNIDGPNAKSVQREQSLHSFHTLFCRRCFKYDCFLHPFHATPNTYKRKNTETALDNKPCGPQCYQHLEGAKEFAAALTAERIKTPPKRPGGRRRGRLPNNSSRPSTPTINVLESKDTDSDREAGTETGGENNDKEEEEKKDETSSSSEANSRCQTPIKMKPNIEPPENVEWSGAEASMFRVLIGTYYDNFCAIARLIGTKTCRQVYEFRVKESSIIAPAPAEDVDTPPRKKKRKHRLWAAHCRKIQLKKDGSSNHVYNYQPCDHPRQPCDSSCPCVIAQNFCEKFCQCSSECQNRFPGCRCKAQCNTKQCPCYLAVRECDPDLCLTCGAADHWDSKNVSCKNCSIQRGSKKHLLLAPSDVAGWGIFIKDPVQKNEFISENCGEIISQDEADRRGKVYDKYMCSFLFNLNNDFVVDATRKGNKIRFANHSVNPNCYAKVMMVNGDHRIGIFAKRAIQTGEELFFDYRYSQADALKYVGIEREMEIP
Y641N EZH2, sequence (O75530 whole entry partner): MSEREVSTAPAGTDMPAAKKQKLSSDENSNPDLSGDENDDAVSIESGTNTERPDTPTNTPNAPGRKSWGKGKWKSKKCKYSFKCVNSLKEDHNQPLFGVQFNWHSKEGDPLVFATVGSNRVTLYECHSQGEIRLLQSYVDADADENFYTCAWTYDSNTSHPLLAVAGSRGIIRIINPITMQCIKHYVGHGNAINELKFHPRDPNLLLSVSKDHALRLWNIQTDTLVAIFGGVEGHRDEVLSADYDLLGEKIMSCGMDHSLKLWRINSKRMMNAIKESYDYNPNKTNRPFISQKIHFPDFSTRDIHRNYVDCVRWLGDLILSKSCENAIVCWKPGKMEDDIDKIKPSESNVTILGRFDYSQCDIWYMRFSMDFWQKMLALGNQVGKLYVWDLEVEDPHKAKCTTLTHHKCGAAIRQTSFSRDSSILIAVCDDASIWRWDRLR
Y641N EZH2, sequence (Q15022 whole entry partner): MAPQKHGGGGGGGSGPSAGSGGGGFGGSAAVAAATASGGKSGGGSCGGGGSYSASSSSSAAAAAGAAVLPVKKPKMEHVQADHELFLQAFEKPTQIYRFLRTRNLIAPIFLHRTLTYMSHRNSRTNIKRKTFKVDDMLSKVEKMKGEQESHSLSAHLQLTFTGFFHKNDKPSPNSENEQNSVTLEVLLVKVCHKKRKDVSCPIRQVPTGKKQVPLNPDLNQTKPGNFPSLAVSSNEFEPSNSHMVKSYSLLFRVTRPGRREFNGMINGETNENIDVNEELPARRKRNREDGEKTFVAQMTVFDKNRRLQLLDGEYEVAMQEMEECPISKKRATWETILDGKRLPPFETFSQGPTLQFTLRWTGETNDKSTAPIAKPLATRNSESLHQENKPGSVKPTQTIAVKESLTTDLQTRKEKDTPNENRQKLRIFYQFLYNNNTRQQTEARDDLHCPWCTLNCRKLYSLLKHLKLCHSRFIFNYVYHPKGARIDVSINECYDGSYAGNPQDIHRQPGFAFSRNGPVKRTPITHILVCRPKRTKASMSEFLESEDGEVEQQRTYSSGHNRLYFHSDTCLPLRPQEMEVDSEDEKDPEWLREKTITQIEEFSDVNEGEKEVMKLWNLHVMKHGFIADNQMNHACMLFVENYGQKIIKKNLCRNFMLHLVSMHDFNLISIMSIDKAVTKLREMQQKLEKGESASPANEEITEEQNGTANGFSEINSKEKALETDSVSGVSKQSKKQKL
EZH2, sequence (Q15910 whole entry): as the sequence (Q15910 whole entry Y641N) above, with N641Y counted along it
EZH2, sequence (O75530 whole entry partner): as the sequence (O75530 whole entry partner) above
EZH2, sequence (Q15022 whole entry partner): as the sequence (Q15022 whole entry partner) above

For `CC1(C)CC(NC(=O)c2ccc(Oc3cccc(C4CCCO4)c3C#N)c(Cl)c2)CC(C)(C)N1` (stereo not drawn) [Compound I-560], the IC50 on EZH2 was less than 5 µM; at Y641N EZH2, greater than 80 µM.

Turning to `CNCc1cccc(Oc2ccc(C(=O)NC3CC(C)(C)NC(C)(C)C3)cn2)c1` [Compound I-415], the IC50 on EZH2 is 20 to 80 µM; against Y641N EZH2 it was greater than 80 µM.

With `CC1(C)CC(NC(=O)c2ccc(Oc3cccc(N4CCOCC4=O)c3)c(Cl)c2)CC(C)(C)N1` [Compound I-397], the IC50 on EZH2 was 5 to 20 µM; against Y641N EZH2, greater than 80 µM.

With `CC1(C)CC(NC(=O)c2ccc(Cn3ccnc3)cc2)CC(C)(C)N1` [Compound I-404], the IC50 at EZH2 was greater than 80 µM; on Y641N EZH2, 20 to 80 µM.

With `CC1(C)CC(NC(=O)c2ccc(Oc3cccc4cnccc34)cc2)CC(C)(C)N1` [Compound I-171], the IC50 at EZH2 is less than 5 µM; on Y641N EZH2 it was 20 to 80 µM.

Turning to `CC1(C)CC(NC(=O)c2ccc(Oc3cccc(-c4ccncc4Cl)c3C#N)c(Cl)c2)CC(C)(C)N1` [Compound I-586], the IC50 at EZH2 and against Y641N EZH2 was less than 5 µM in each case.

Take `CN(C)c1ccc(-c2cccc(OCc3ccc(C(=O)NC4CC(C)(C)NC(C)(C)C4)cc3)c2)cn1` [Compound I-154]: the half-maximal inhibitory concentration (IC50) at EZH2 and at Y641N EZH2 was 20 to 80 µM throughout.

`CC1(C)CC(NC(=O)c2ccc(Oc3ccccc3-c3cccnc3)c(Cl)c2)CC(C)(C)N1` [Compound I-207]: the IC50 at EZH2 is less than 5 µM; on Y641N EZH2, 20 to 80 µM.

On to `COc1cccc(Oc2ccc(C(=O)NC3CC(C)(C)NC(C)(C)C3)cc2Cl)c1C#N` [Compound I-333], for which the IC50 is less than 5 µM on EZH2 and 5 to 20 µM against Y641N EZH2.

Regarding `CC1(C)CC(NC(=O)c2ccc(Oc3cccc(-c4cncnc4)c3C#N)c(Cl)c2)CC(C)(C)N1` [Compound I-340], the IC50 on EZH2 is less than 5 µM; at Y641N EZH2 it was 5 to 20 µM.

For the molecule `CC1(C)CC(NC(=O)c2ccc(Oc3cccc(-c4cn[nH]c4)c3C#N)c(Cl)c2)CC(C)(C)N1` [Compound I-307], the IC50 at EZH2 and against Y641N EZH2 was less than 5 µM each time.

Take `CC1(C)CC(NC(=O)c2ccc(/C=C/c3ccccc3)cc2)CC(C)(C)N1` [Compound I-330]: the IC50 on EZH2 was 20 to 80 µM; on Y641N EZH2, greater than 80 µM.

Regarding `CC1(C)CC(N2Cc3cc(Oc4ccccc4C#N)c(Cl)cc3C2=O)CC(C)(C)N1` [Compound I-356], the IC50 on EZH2 and on Y641N EZH2 was greater than 80 µM each time.

With `CC1(C)CC(NC(=O)c2ccc(Oc3cccc(-c4ccccn4)c3C#N)c(Cl)c2)CC(C)(C)N1` [Compound I-367], the IC50 at EZH2 and against Y641N EZH2 was less than 5 µM in each case.

On to `CC1(C)CC(NC(=O)c2ccc(Oc3ccccc3-c3cnc4ccccc4c3)c(Cl)c2)CC(C)(C)N1` [Compound I-320], for which the IC50 at EZH2 is less than 5 µM; at Y641N EZH2, 5 to 20 µM.

For the molecule `Cc1cc(C(=O)NC2CC(C)(C)NC(C)(C)C2)ccc1Oc1cccc(Br)c1C#N` [Compound I-259], the IC50 on EZH2 and against Y641N EZH2 was less than 5 µM each time.

Consider `CC1(C)CC(NC(=O)c2ccc(-n3ncc4ccccc43)c(Cl)c2)CC(C)(C)N1` [Compound I-327], for which the results for the half-maximal inhibitory concentration (IC50) on EZH2 and against Y641N EZH2 were less than 5 µM and 5 to 20 µM, respectively.

`CC1(C)CC(NC(=O)c2ccc(Oc3cccc(-c4cn[nH]c4)c3C#N)c(F)c2)CC(C)(C)N1` [Compound I-398]: the IC50 is less than 5 µM at EZH2 and 5 to 20 µM at Y641N EZH2.

With `CC1(C)CC(NC(=O)c2ccc(Oc3cccc(-c4ccnnc4)c3C#N)c(Cl)c2)CC(C)(C)S1(=O)=O` [Compound I-533], the results for the IC50 on EZH2 and against Y641N EZH2 were less than 5 µM and greater than 80 µM, respectively.

Take `COc1cc(-c2cccc(Oc3ccc(C(=O)NC4CC(C)(C)NC(C)(C)C4)cc3Cl)c2C#N)cc(C)n1` [Compound I-573]: the IC50 at EZH2 was less than 5 µM; against Y641N EZH2, 5 to 20 µM.

In the case of `CC1(C)CC(NC(=O)c2ccc(Oc3cccc(-c4ccc(N)nc4)c3C#N)c(Cl)c2)CC(C)(C)N1` [Compound I-312], the concentration for half-maximal inhibition (IC50) at EZH2 and against Y641N EZH2 was less than 5 µM in each case.

Turning to `CC1(C)CC(NC(=O)c2ccc(Oc3cccc(-c4cnccn4)c3C#N)c(Cl)c2)CC(C)(C)N1` [Compound I-428], the IC50 on EZH2 was less than 5 µM; against Y641N EZH2 it was 5 to 20 µM.

Turning to `CC1(C)CC(NC(=O)c2ccc(COc3ccccc3Br)cc2)CC(C)(C)N1` [Compound I-185], the results for the IC50 at EZH2 and on Y641N EZH2 were 20 to 80 µM and greater than 80 µM, respectively.

As to `CC1(C)CC(NC(=O)c2ccc(Oc3cccc(-c4cncc(C#N)c4)c3C#N)c(Cl)c2)CC(C)(C)N1` [Compound I-571], the IC50 at EZH2 and at Y641N EZH2 was less than 5 µM each time.

For the molecule `CC1(C)CC(NC(=O)c2ccc(Oc3cccc(N4CCNCC4)c3)c(Cl)c2)CC(C)(C)N1` [Compound I-493], the IC50 was 20 to 80 µM at EZH2 and greater than 80 µM against Y641N EZH2.

On to `CC1(C)CC(NC(=O)c2ccc(Oc3cccc4cnccc34)c(Cl)c2)CC(C)(C)N1` [Compound I-324], for which the half-maximal inhibitory concentration (IC50) is less than 5 µM at EZH2 and 5 to 20 µM on Y641N EZH2.

With `CC1(C)CC(NC(=O)c2ccc(Oc3cccc(-c4ccnc(C#N)c4)c3C#N)c(Cl)c2)CC(C)(C)N1` [Compound I-561], the 50% inhibitory concentration (IC50) on EZH2 and against Y641N EZH2 was less than 5 µM throughout.

In the case of `CN(C)c1cccc(Oc2ccc(C(=O)NC3CC(C)(C)NC(C)(C)C3)cc2Cl)c1C#N` [Compound I-334], the IC50 was less than 5 µM on EZH2 and 5 to 20 µM on Y641N EZH2.

For the molecule `CC1(C)CC(NC(=O)c2ccc(COc3cccc(Br)c3)c(Br)c2)CC(C)(C)N1` [Compound I-216], the IC50 was in the range of 5 to 20 µM on EZH2 and 20 to 80 µM against Y641N EZH2.

Regarding `CC1(C)CC(NC(=O)c2ccc(Oc3cccc(-c4cccnc4)c3C#N)c(Cl)c2)CC(C)(C)N1` [Compound I-308], the 50% inhibitory concentration (IC50) on EZH2 and on Y641N EZH2 was less than 5 µM in each case.

For `N#Cc1ccccc1Oc1ccc(C(=O)NC2CCSCC2)cc1Cl` [Compound I-427], the IC50 on EZH2 and on Y641N EZH2 was greater than 80 µM in each case.

For the molecule `CC1(C)CC(NC(=O)c2ccc(COc3cccc(-c4ccc5[nH]ccc5c4)c3)cc2)CC(C)(C)N1` [Compound I-183], the IC50 on EZH2 and against Y641N EZH2 was 20 to 80 µM in each case.

With `CCOc1cc(-c2cccc(Oc3ccc(C(=O)NC4CC(C)(C)NC(C)(C)C4)cc3Cl)c2C#N)ccn1` [Compound I-556], the values for the IC50 at EZH2 and at Y641N EZH2 were less than 5 µM and greater than 80 µM, respectively.

Take `CC1(C)CC(NC(=O)c2ccc(Oc3cccc(-c4ccc(O)nc4)c3C#N)c(Cl)c2)CC(C)(C)N1` [Compound I-558]: the IC50 on EZH2 and against Y641N EZH2 was less than 5 µM in each case.

Regarding `CC1(C)CC(NC(=O)c2ccc(Oc3cccc(-c4ccc(N)nc4)c3)cc2)CC(C)(C)N1` [Compound I-228], the IC50 at EZH2 was 5 to 20 µM; against Y641N EZH2, greater than 80 µM.

For the molecule `CC1(C)CC(OC(=O)c2ccc(Oc3cccc(-c4ccnnc4)c3C#N)c(Cl)c2)CC(C)(C)N1` [Compound I-504, 2,2,6,6-tetramethylpiperidin-4-yl 3-chloro-4-(2-cyano-3-(pyridazin-4-yl)phenoxy)benzoate], the half-inhibitory concentration (IC50) on EZH2 and against Y641N EZH2 was less than 5 µM throughout.

Consider `CCc1cccc(Oc2ccc(C(=O)NC3CC(C)(C)NC(C)(C)C3)cc2C)c1C#N` [Compound I-266], for which the IC50 at EZH2 and against Y641N EZH2 was less than 5 µM throughout.

As to `CC1(C)CC(NC(=O)c2ccc(Oc3ccccc3C#N)c(F)c2)CC(C)(C)N1` [Compound I-217], the IC50 is less than 5 µM at EZH2 and 20 to 80 µM against Y641N EZH2.

With `CC1(C)CC(NC(=O)c2ccc(Oc3cccc(Cl)c3C#N)c(Cl)c2)CC(C)(C)N1` [Compound I-256], the IC50 on EZH2 and on Y641N EZH2 was less than 5 µM throughout.

With `CC1(C)CC(NC(=O)c2ccc(Oc3cccc(-c4ccncc4)c3C#N)c(Cl)c2)CC(C)(C)N1` [Compound I-339], the IC50 on EZH2 and on Y641N EZH2 was less than 5 µM throughout.

As for `CC1(C)CC(N2CCc3cc(Oc4ccccc4C#N)c(Cl)cc3C2=O)CC(C)(C)N1` [Compound I-163], the IC50 was 20 to 80 µM at EZH2 and greater than 80 µM against Y641N EZH2.

On to `CC1(C)CC(NC(=O)c2ccc(Oc3ccccc3C#N)c(CCc3ccccc3)c2)CC(C)(C)N1` [Compound I-199], for which the concentration for half-maximal inhibition (IC50) at EZH2 is less than 5 µM; against Y641N EZH2, 5 to 20 µM.
